Usually IC50 stands for the concentration that inhibits the measured activity by half.

Activity calls are given as the source filed them.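 How the source made its calls: active means either panel giving IC50 at or below 10 µM; inactive means both panels giving IC50 over 10 µM.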 A value given as a limit tells only on which side of the number the result lay.

The target in one assay is Melanocortin receptor 4 (Homo sapiens) (UniProt P32245). The experiment in a line: inhibition of MC4R-driven cAMP production – cell-based, FRET, biased ligands, late-stage follow-up (AID 651554). The settings on record: U2OS MC4R, Melanotan II cAMP TR-FRET antagonist; run 1. On the technique in general: Changes in cAMP serve as a functional read-out for many G protein-coupled receptors.
Sequence of Melanocortin receptor 4 (Homo sapiens) (P32245 whole entry, looked up): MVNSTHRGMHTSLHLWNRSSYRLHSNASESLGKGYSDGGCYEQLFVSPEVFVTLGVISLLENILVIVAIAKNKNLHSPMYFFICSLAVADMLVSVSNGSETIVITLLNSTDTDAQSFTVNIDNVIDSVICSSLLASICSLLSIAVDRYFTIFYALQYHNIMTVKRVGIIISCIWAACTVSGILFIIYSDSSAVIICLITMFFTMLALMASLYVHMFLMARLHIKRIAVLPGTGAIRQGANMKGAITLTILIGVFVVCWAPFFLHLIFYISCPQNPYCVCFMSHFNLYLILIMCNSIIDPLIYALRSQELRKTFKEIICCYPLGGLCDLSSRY
Consider `COc1ccc(N(C(C)=O)C(C(=O)NC2CCCC2)c2cccs2)cc1OC` (stereo not given), for which the IC50 was > 50 µM (inactive). In the case of `Cc1ccccc1CN1Cc2cnnn2-c2ccccc2C1C#N` (stereo not given), the IC50 is > 50 µM (inactive).

On to `CCC1CCCCN1S(=O)(=O)c1ccc(NC(=O)c2cccc(S(C)(=O)=O)c2)cc1` (stereo not given), for which the IC50 is > 50 µM (inactive). Take `CCC1CCCCN1S(=O)(=O)c1ccc(NC(=O)c2ccnc(SC)n2)cc1` (stereo not given): the IC50 is > 50 µM (inactive).

For `CNC(=O)c1cc(Oc2ccc(NC(=O)Nc3ccc(Cl)c(C(F)(F)F)c3)cc2)ccn1`, the IC50 result is “inactive”.

With `CCC1CCCCN1S(=O)(=O)c1ccc(NC(=O)c2ccccc2)cc1` (stereo not given), the IC50 is > 50 µM (inactive). For the compound `CC(=O)c1ccc(Nc2nc3ccc(C(=O)N(CCC(C)C)CCC(C)C)cc3n2CCCN2CCCCC2)cc1`, the IC50 is 0.0174 µM. The same measure, in the same setting: under `C#CC(=O)N(c1ccc(OC)c(OC)c1)C(C(=O)NC1CCCC1)c1cccs1` (stereo not given) stands > 50 µM (inactive); under `CC1CCCCN1S(=O)(=O)c1ccc(NC(=O)c2nc(S(C)(=O)=O)ncc2Cl)cc1` (stereo not given), “inactive”; under `CNC(=O)c1cc(Oc2ccc(NCC(=O)Nc3ccc(Cl)c(C(F)(F)F)c3)cc2)ccn1`, > 50 µM (inactive). The same measure, in the same setting: under `CNC(=O)c1cc(Oc2ccc(NC(=O)CNc3ccc(Cl)c(C(F)(F)F)c3)cc2)ccn1` stands > 50 µM (inactive); under `COc1ccccc1C1(CCNC(C)c2cccs2)CCOC(C(C)C)C1` (stereo not given), 8.15 µM.

The same assay, now with this note: U2OS MC4R, Melanotan II cAMP TR-FRET antagonist; run 2.
As for `Cc1ccc(CN2Cc3cnnn3-c3ccccc3C2C#N)c(C)c1` (stereo not given), the IC50 was > 50 µM (inactive). `O=C(NC1CCCC1)C(Nc1ccccc1)c1cccs1` (stereo not given): the IC50 is > 50 µM (inactive).

On to `CCC1CCCCN1S(=O)(=O)c1ccc(NC(=O)c2nc(S(C)(=O)=O)ncc2Br)cc1` (stereo not given), for which the IC50 was > 50 µM (inactive). Same read-out and setting: under `N#CC1c2ccccc2-n2nncc2CN1C(=O)c1ccccc1` (stereo not given) stands > 50 µM (inactive); under `CCC1CCCCN1S(=O)(=O)c1ccc(NC(=O)c2ccnc(S(C)=O)n2)cc1` (stereo not given), > 50 µM (inactive). The same measure, in the same setting: the same measure for `COc1ccc(N(C(=O)Cc2cccs2)C(C(=O)NC2CCCC2)c2cccs2)cc1OC` (stereo not given): > 50 µM (inactive); for `CCC1CCCCN1S(=O)(=O)c1ccc(NC(=O)c2ccccc2)cc1` (stereo not given): > 50 µM (inactive); for `COc1ccc(N(C(=O)c2ccco2)C(C(=O)NC2CCCC2)c2cccs2)cc1OC` (stereo not given): > 50 µM (inactive). Still for that read-out and setting: the same measure for `Cc1ccc(CN2Cc3ccccc3-n3nncc3C2)c(C)c1`: > 50 µM (inactive); for `CC(=O)c1ccc(Nc2nc3ccc(C(=O)N(CCC(C)C)CCC(C)C)cc3n2CCCN2CCCCC2)cc1`: 0.0365 µM. Take `CC(=O)N(c1ccccc1)C(C(=O)NC1CCCC1)c1cccs1` (stereo not given): the IC50 is > 50 µM (inactive). On the same count and under the same terms, under `CCC1CCCCN1S(=O)(=O)c1ccc(NC(=O)c2ccnc(S(C)(=O)=O)n2)cc1` (stereo not given) stands “inactive”. On the same count and under the same terms, the same measure for `Cc1ccccc1CN1Cc2ccccc2-n2nncc2C1`: > 50 µM (inactive).

The values are drawn from PubChem BioAssay AID651554 (The Scripps Research Institute Molecular Screening Center, 2012).
